The results in this text go back to patent US7371811B2, “Schizophrenia associated genes, proteins and biallelic markers” (Serono Genetics Institute S.A., priority 1998, dated 2008).

The subject of this assay is Male C57BL6 adult mice. Put plainly: Effect of sbg1 peptide on behavior of mice (locomotor and stereotypy movements). Type of assay: in vivo. As to conditions: 50 μg peptide intraperitoneally in 200 μl saline, n=4/peptide, FIG. 18. The method, then:
In one example, the present inventors have tested sbg1 peptides by injection into mice. An sbg1 peptide comprising amino acid positions 124 to 153 of SEQ ID No 34 was injected peritoneally into adult mice as described herein in Example 7. […] Because the onset of stereotypy was variable, data are presented as the average of stereotypy for observations over the entire time period.
Animals: Male C57BL6 adult mice (approximately 6 weeks old)
Peptides: sbg1 peptide: • NH2-[…]-COOH (SEQ ID NO:232) • Control 1: NH2-[…]-COOH (SEQ ID NO:233) • Control 2: NH2-MHMKTILGPRLGLGE-COOH (SEQ ID NO:234)
Protocol: • 1. Inject mice intraperitoneally with 50 μg peptide in 200 μl sterile physiological saline (n=4/peptide). • 2. Place mice in clean empty cages containing no litter, and only a small test tube rack. The cages are covered with a plastic sheet to enable taking photographs and video-tracking. • 3. Observe behavior for one minute from t=5 min up to t=45 min, as indicated. Any locomoter or stereotypy movements were recorded as positive over 1 min intervals. Locomoter movements include climbing, and rearing while stereotypy movements include grooming and scratching. At the end of the experiment, the number of movements were added up for each animal.
Results: • 1. […]

Turning to “NH2-QPLERMWTCNYNQQKDQSCNHKEITSTKAE-COOH (H-QPLERMWTCNYNQQKDQSCNHKEITSTKAE-OH; cysteine pairing not given here; listed as Homo sapiens) [sbg1 peptide]”, the “frequency of movements (locomotor activity) over the time course of the experiment” value (average movements at 5, 10, 15 min compared with 30, 35, 40, 45 min) is “decrease in the frequency of their movements”. Also, where the note is “observed t=5 to 45 min, effect most prominent during the last period”, the “stereotypy (grooming and scratching movements)” value was “increased stereotypy”.
